# Assay results taken from BindingDB's records for patent US20240287079 (Japan Tobacco, 2024).
# Molecular target: NACHT, LRR and PYD domains-containing protein 3 (Homo sapiens, UniProt Q96P20)
# Experiment: Evaluation of NLRP3 Inflammasome Inhibitory Activity Assay
# Description: The NLRP3 inflammasome inhibitory activity of test compounds were evaluated on the basis of the inhibitory activity of the IL-1β production in THP1-Null cells (Product Number: thp-null, InvivoGen). […] The supernatant of the culture was removed, and thereto was added media for assay (25 μL/well) containing 1 μg/mL Lipopolysaccharides (Product Number: L2654, Sigma-Aldrich (registered trademark)). […] The supernatant of the culture was removed. […] A solution containing a test compound (20 μL/well) was added to test compound-setting wells. […] The supernatant of the culture was cryonically stored (set at −20° C.) until measurement of IL-1β.
# NACHT, LRR and PYD domains-containing protein 3, sequence (Q96P20 whole entry, the tested form may be a part): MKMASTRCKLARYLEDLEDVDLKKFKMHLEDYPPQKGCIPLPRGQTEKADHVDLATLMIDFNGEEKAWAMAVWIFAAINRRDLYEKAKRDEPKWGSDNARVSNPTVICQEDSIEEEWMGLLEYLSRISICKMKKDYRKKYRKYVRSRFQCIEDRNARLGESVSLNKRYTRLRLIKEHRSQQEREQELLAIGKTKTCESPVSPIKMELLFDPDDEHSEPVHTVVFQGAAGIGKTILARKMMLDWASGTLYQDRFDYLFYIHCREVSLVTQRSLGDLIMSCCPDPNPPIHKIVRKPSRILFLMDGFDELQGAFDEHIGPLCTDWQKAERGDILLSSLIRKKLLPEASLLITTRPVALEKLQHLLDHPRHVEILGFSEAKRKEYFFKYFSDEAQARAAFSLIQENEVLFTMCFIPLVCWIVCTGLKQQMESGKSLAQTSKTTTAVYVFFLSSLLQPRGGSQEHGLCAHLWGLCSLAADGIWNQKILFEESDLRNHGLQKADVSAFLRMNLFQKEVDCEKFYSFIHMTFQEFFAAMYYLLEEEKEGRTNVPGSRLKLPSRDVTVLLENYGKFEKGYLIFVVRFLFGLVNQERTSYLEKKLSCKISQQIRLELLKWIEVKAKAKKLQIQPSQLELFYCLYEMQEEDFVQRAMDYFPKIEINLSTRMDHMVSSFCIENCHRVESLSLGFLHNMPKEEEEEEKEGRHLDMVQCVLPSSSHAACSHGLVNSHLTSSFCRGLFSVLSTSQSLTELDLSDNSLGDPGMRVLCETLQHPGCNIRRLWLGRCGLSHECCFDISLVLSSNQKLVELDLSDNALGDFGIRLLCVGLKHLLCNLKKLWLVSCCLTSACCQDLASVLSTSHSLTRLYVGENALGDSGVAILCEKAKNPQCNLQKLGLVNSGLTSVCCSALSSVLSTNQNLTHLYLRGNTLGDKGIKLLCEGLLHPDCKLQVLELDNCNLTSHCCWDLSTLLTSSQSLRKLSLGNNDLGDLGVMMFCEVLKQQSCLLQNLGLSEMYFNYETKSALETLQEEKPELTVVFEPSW
row,Structure (SMILES),IC50
1,"CNc1nc2nn(-c3c(C)cc(Br)cc3C)cc2c(=O)n1C [US20240287079, Example 247]",260 nM
2,"Cc1cc(Br)cc(C)c1-n1cc2c(=O)[nH]c(N3CCO[C@H](C)C3)nc2n1 [US20240287079, Example 215]",17 nM
3,"Cc1cc(Br)cc(C)c1-n1cc2c(=O)[nH]c(N3C4CCC3CC(F)(F)C4)nc2n1 [US20240287079, Example 238]",110 nM
4,"Cc1cc(Br)cc(C)c1-n1cc2c(=O)[nH]c(N3CCOC4(COC4)C3)nc2n1 [US20240287079, Example 264]",32 nM
5,"Cc1cc(Br)cc(C)c1-n1cc2c(=O)[nH]c(N3C[C@@H](C)O[C@@H](C)C3)nc2n1 [US20240287079, Example 224]",80 nM
6,"Cc1cc(Br)cc(C)c1-n1cc2c(=O)[nH]c(N3CCOC[C@@H]3C)nc2n1 [US20240287079, Example 223]",160 nM
7,"Cc1cc(Br)cc(C)c1-n1cc2c(=O)[nH]c(N3CC4CCC(C3)C4(F)F)nc2n1 [US20240287079, Example 239]",11 nM
8,"Cc1cc(Br)cc(C)c1-n1cc2c(=O)[nH]c(N3CCC4CC43)nc2n1 (stereo unspecified) [US20240287079, Example 240]",7.1 nM
9,"COC1(C)CN(c2nc3nn(-c4c(C)cc(Br)cc4C)cc3c(=O)n2C)C1 [US20240287079, Example 212]",130 nM
10,"COC1(C)CN(c2nc3nn(-c4c(C)cc(Br)cc4C)cc3c(=O)[nH]2)C1 [US20240287079, Example 203]",27 nM
11,"Cc1cc(Br)cc(C)c1-n1cc2c(=O)[nH]c(N3CCOC[C@H]3C)nc2n1 [US20240287079, Example 213]",6.8 nM
12,"Cc1cc(Br)cc(C)c1-n1cc2c(=O)[nH]c(N3CC4(COC4)C3)nc2n1 [US20240287079, Example 204]",28 nM
13,"Cc1cc(Br)cc(C)c1-n1cc2c(=O)[nH]c(N3CCO[C@@H](C)C3)nc2n1 [US20240287079, Example 214]",19 nM
14,"COC1COCCN(c2nc3nn(-c4c(C)cc(Br)cc4C)cc3c(=O)[nH]2)C1 (stereo unspecified) [US20240287079, Example 216]",12 nM
15,"CCC1COCCN1c1nc2nn(-c3c(C)cc(Br)cc3C)cc2c(=O)[nH]1 (stereo unspecified) [US20240287079, Example 248]",30 nM
16,"Cc1cc(Br)cc(C)c1-n1cc2c(=O)[nH]c(N3CCOC4(CC4)C3)nc2n1 [US20240287079, Example 225]",19 nM
